Reference: paper PMC8869358, “High-Throughput Chemical Screening and Structure-Based Models to Predict hERG Inhibition” (Biology, 2022)
Counter-ions that a name gives are not always drawn.

Target: hERG (Homo sapiens, UniProt Q12809)
Assay: cell-based
Conditions: (-LOG10(IC50), µM)

Sequence of hERG (Q12809 whole entry): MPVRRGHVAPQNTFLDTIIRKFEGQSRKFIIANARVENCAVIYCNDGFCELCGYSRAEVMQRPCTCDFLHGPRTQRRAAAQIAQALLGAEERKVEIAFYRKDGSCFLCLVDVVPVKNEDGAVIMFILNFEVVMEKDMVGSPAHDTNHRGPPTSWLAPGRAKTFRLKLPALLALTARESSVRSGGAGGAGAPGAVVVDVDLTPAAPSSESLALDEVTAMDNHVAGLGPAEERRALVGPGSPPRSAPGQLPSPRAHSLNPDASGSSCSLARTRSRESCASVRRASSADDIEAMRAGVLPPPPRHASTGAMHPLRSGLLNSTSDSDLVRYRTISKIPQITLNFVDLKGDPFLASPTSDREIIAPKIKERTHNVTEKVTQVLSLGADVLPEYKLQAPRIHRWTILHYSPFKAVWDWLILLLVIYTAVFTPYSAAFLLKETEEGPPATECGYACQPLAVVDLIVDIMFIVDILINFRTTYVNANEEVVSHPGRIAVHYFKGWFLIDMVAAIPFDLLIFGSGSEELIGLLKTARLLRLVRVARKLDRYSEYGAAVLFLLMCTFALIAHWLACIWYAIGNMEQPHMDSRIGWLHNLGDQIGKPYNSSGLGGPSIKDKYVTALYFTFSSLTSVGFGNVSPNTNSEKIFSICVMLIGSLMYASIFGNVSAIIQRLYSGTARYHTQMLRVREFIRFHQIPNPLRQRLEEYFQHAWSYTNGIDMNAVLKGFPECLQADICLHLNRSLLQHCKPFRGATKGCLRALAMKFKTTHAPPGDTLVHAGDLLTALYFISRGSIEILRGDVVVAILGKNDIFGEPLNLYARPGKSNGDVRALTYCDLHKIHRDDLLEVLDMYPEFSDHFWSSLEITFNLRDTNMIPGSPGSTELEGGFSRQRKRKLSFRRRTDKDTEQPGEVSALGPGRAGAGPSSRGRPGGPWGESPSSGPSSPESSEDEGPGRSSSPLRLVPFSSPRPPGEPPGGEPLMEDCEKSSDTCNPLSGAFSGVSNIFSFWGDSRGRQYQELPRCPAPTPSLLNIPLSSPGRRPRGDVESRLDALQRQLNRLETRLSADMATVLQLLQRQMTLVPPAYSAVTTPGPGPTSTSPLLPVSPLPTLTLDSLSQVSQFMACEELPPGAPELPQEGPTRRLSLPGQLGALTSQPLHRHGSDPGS

SMILES	IC50
O=C(CN1CCN(Cc2ccc3c(c2)OCO3)CC1)N1c2ccccc2Sc2ccccc21 [Fenoverine]	3.51 µM
CCN(CC)CCOc1ccccc1C(=O)CCc1ccccc1 [Etafenone]	3.25 µM
Nc1ccc(C(=O)OCCCOC(=O)c2ccc(N)cc2)cc1 [1,3-Propanediol, bis(4-aminobenzoate)]	12.3 µM
Cc1c(OCC(F)(F)F)ccnc1C[S+]([O-])c1nc2ccccc2[nH]1 (stereo not drawn) [Lansoprazole]	43.6 µM
Cc1cc(C(C)(C)c2ccc(O)c(C)c2)ccc1O [3,3'-Dimethylbisphenol A]	41.6 µM
O=C(c1ccc(F)cc1)C1CCN(CCn2c(=S)[nH]c3ccccc3c2=O)CC1 [Altanserin hydrochloride]	0.817 µM
O=C1C(Cl)=C(Cl)C(=O)c2ccccc21 [Dichlone]	21.9 µM
CCOC(=O)c1cn2nc(OP(=S)(OCC)OCC)cc2nc1C [Pyrazophos]	51.9 µM
COc1ccc(C(=O)CC(=O)c2ccc(C(C)(C)C)cc2)cc1 [1-(4-tert-Butylphenyl)-3-(4-methoxyphenyl)propane-1,3-dione]	21.3 µM
CCCOC(C(=O)OC1CCN(C)CC1)(c1ccccc1)c1ccccc1 [Propiverine hydrochloride]	14.2 µM
CCCCCN(CCCCC)C(=O)C(CCC(=O)O)NC(=O)c1ccc(Cl)c(Cl)c1 (stereo not drawn) [Lorglumide sodium]	9.52 µM
CCCCCCCCCCOCC(O)CN (stereo not drawn) [Decominol hydrochloride]	20.5 µM
Oc1cc(Cl)ccc1Oc1ccc(Cl)cc1Cl [Triclosan]	45.2 µM
CC(C)(Cc1c[nH]c2ccccc12)NCC(O)COc1ccccc1C#N (stereo not drawn) [Bucindolol]	8.49 µM
CN1Cc2c(N)cccc2C(c2ccccc2)C1 (stereo not drawn) [Nomifensine]	38.9 µM
CCN(CC)CCOc1ccc(C(O)(Cc2ccc(Cl)cc2)c2ccc(C)cc2)cc1 (stereo not drawn) [Triparanol]	1.11 µM
CC(=O)C1(C)CC2=C(CCCC2(C)C)CC1C (stereo not drawn) [Isocyclemone E]	40 µM
CC(C)OC(=O)C(O)(c1ccc(Cl)cc1)c1ccc(Cl)cc1 [Chloropropylate]	22.7 µM
CCCCOC(=O)[C@@H](C)Oc1ccc(Oc2ccc(C#N)cc2F)cc1 [Cyhalofop-butyl]	4.87 µM
CCCCCCOc1cc(C)c(O)c(C)c1C [1-O-Hexyl-2,3,5-trimethylhydroquinone]	31.3 µM

SMILES	IC50
CC(C)(C)NC(=O)[C@@H]1C[C@@H]2CCCC[C@@H]2CN1C[C@@H](O)[C@H](Cc1ccccc1)NC(=O)[C@H](CC(N)=O)NC(=O)c1ccc2ccccc2n1 [Saquinavir mesylate]	22.2 µM
CC(C)=CCCC(C)=CCCC(C)=CCO [Farnesol]	47.1 µM
CCCCCCCCCCn1cc[n+](CCCCCCCCCC)c1C [1,3-Didecyl-2-methylimidazolium chloride]	0.51 µM
CC1=CC(=O)c2ccccc2C1=O [Menadione]	7.28 µM
c1ccc(CSCc2ccccc2)cc1 [Benzyl sulfide]	47 µM
CCCN(CCC)C(=O)Cc1c(-c2ccc(Cl)cc2)nc2ccc(Cl)cn12 [Alpidem]	20.5 µM
CCOCCn1c(C2CCN(CCc3ccc(C(C)(C)C(=O)O)cc3)CC2)nc2ccccc21 [Bilastine]	10.1 µM
Cl[C@H]1[C@H](Cl)[C@@H](Cl)[C@H](Cl)[C@H](Cl)[C@H]1Cl [alpha-1,2,3,4,5,6-Hexachlorocyclohexane]	49.4 µM
CCCCNc1ccc(C(=O)OCCN(CC)CC)cc1 [Depolipon]	19 µM
CC=O [Acetaldehyde]	5.33 µM
O=C1NC2CCCCN2C12CCN(CCCN1c3ccccc3CCc3ccc(Cl)cc31)CC2 (stereo not drawn) [Mosapramine]	0.882 µM
ClC(Cl)(Cl)c1ccc(C(Cl)(Cl)Cl)cc1 [1,4-Bis(trichloromethyl)benzene]	14.2 µM
NNc1nc(-c2ccc([N+](=O)[O-])cc2)cs1 [2-Hydrazino-4-(4-nitrophenyl)thiazole]	23.6 µM
CCCCOc1cc(C(=O)NCCN(CC)CC)c2ccccc2n1 [Dibucaine]	6.74 µM
C/C=C/C=C/CCCCCCCO [8,10-Dodecadien-1-ol]	22.7 µM
CCOc1cc(C(C)(C)C)ccc1C1COC(c2c(F)cccc2F)=N1 (stereo not drawn) [Etoxazole]	13.8 µM
CCCCCCOC(=O)NC(=N)c1ccc(NCc2nc3cc(C(=O)N(CCC(=O)OCC)c4ccccn4)ccc3n2C)cc1 [Dabigatran etexilate]	0.515 µM
CCC1=C[C@@H]2CN(C1)Cc1c([nH]c3ccccc13)[C@@](C(=O)OC)(c1cc3c(cc1OC)N(C)[C@H]1[C@@](O)(C(=O)OC)[C@H](OC(C)=O)[C@]4(CC)C=CCN5CC[C@]31[C@@H]54)C2 [Vinorelbine tartrate]	6.49 µM
Nc1ccc(N=Nc2ccccc2)c(N)c1 [C.I. Basic Orange 2]	19.8 µM
CCN(CC)CCN1C(=O)CN=C(c2ccccc2F)c2cc(Cl)ccc21 [Flurazepam]	3.79 µM

SMILES	IC50
Cc1ccc(C(=O)Oc2ccc(C(O)CNC(C)(C)C)cc2OC(=O)c2ccc(C)cc2)cc1 (stereo not drawn) [Bitolterol]	5.78 µM
NC(=O)c1nc(-c2cccc(-c3cc(F)ccc3OCC(F)(F)C(F)(F)F)c2)n[nH]1 [Potassium 5-carbamoyl-3-[5'-fluoro-2'-(2,2,3,3,3-pentafluoropropoxy)-3-biphenylyl]-1,2,4-triazol-1-ide hydrate (1:1:1)]	47.1 µM
Cc1ccc(CCn2c3c(c4cc(Cl)ccc42)CN(C)CC3)cn1 [Dorastine]	15.7 µM
CCN(CC)CCNc1ccc(CO)c2sc3ccccc3c(=O)c12 [Hycanthone]	10.7 µM
O=C(N[C@H](c1ccccc1)[C@@H]1CN2CCC1CC2)c1c(Cl)ccc(C(F)(F)F)c1Cl [SSR 103800]	30.2 µM
CCOC(=O)NNc1ccc(N(CC)CC(C)O)nn1 (stereo not drawn) [Cadralazine]	23.9 µM
C#CCOC(=O)[C@@H](C)Oc1ccc(Oc2ncc(Cl)cc2F)cc1 [Clodinafop-propargyl]	41 µM
O=C1C=CC(=O)N1c1ccc(Cc2ccc(N3C(=O)C=CC3=O)cc2)cc1 [Bismaleimide]	43.6 µM
CCOC(=O)C1(c2ccccc2)CCN(CCc2ccc(N)cc2)CC1 [Anileridine]	18.3 µM
COc1ccccc1N1CCN(CC(O)COc2cccc3ccccc23)CC1 (stereo not drawn) [Naftopidil]	1.69 µM
Cn1cc(C(=O)[C@@H]2CCc3nc[nH]c3C2)c2ccccc21 [Ramosetron hydrochloride]	20.5 µM
O=P(Oc1ccccc1)(Oc1ccccc1)Oc1ccccc1 [triphenyl phosphate]	32.1 µM
Oc1ccc2[nH]cc(CCCCN3CC=C(c4ccccc4)CC3)c2c1 [Roxindole]	3.38 µM
CN(C)c1ccc(C(=O)c2ccc(N(C)C)cc2)cc1 [Bis(4-(dimethylamino)phenyl)methanone]	57.1 µM
Nc1ccc(C(=O)N2CC3CC(CN(Cc4ccccc4)C3)C2)cc1 [Ambasilide]	21.3 µM
Cc1cc(-c2ccc(N=Nc3cc(S(=O)(=O)O)c4ccccc4c3N)c(C)c2)ccc1N=Nc1cc(S(=O)(=O)O)c2ccccc2c1N [C.I. Direct Red 2]	21.2 µM
CCCCCCCCCCCCc1ccc(O)cc1 [4-Dodecylphenol]	19.5 µM
CCOC(=O)C1=NOC(c2ccccc2)(c2ccccc2)C1 [Ethyl 5,5-diphenyl-2-isoxazoline-3-carboxylate]	36.7 µM
N#Cc1ccc(CC(=NNC(=O)Nc2ccc(OC(F)(F)F)cc2)c2cccc(C(F)(F)F)c2)cc1 [Metaflumizone]	13.3 µM
CC(C)CCOC(=O)C=Cc1ccccc1 [Isoamyl cinnamate]	39.1 µM
